The values below come from ChEMBL document CHEMBL2203136, “Synthesis, characterization, biological evaluation and QSAR studies of 11-p-substituted phenyl-12-phenyl-11a,12-dihydro-11H-indeno[2,1-c][1,5]benzothiazepines as potential antimicrobial agents” (Eur J Med Chem, 2012).

The logP is the decadic logarithm of the partition coefficient of the neutral form, usually between octanol and water.

Values after ≈ are worked out from the molar mass of the structure shown. Active and inactive are the calls of the source. The rule behind the calls is not given here.

A short description of data set [1]: Octanol-water partition coefficient, log P of the compound. The format is physicochemical.
For data set [2], the system named is Staphylococcus aureus. Description: Antibacterial activity against Staphylococcus aureus MTCC 7443 after 24 hrs by serial dilution method relative to 11,12-Diphenyl-11a,12-dihydro-11H-indeno[2,1-c][1,5]benzothiazepine. The format is functional.
In data set [3] the test system is Escherichia coli. Description: Antibacterial activity against Escherichia coli MTCC 42 after 24 hrs by serial dilution method. In kind it is functional. Conditions: for MIC: Escherichia coli, MTCC 42, 24 h.
Data set [4] has as its system Escherichia coli. Description: Antibacterial activity against Escherichia coli MTCC 42 after 24 hrs by serial dilution method relative to 11,12-Diphenyl-11a,12-dihydro-11H-indeno[2,1-c][1,5]benzothiazepine. The format is functional.
The test system of data set [5] is Bacillus subtilis. Description: Antibacterial activity against Bacillus subtilis MTCC 441 after 24 hrs by serial dilution method.
The subject of data set [6] is Aspergillus fumigatus. Description: Antifungal activity against Aspergillus fumigatus MTCC 2550 after 72 hrs by serial dilution method. As to conditions: for MIC: Aspergillus fumigatus, MTCC 2550, 72 h. The format is functional.
Data set [7] deals with Pseudomonas aeruginosa. Description: Antibacterial activity against Pseudomonas aeruginosa MTCC 7952 after 24 hrs by serial dilution method. As to conditions: for MIC: Pseudomonas aeruginosa, MTCC 7952, 24 h. The format is functional.
Data set [8] has as its system Candida albicans. Description: Antifungal activity against Candida albicans MTCC 183 after 72 hrs by serial dilution method relative to 11,12-Diphenyl-11a,12-dihydro-11H-indeno[2,1-c][1,5]benzothiazepine. In kind it is functional.
Data set [9] deals with Aspergillus fumigatus. Description: Antifungal activity against Aspergillus fumigatus MTCC 2550 after 72 hrs by serial dilution method relative to 11,12-Diphenyl-11a,12-dihydro-11H-indeno[2,1-c][1,5]benzothiazepine. The format is functional.
The test system of data set [10] is Candida albicans. Description: Antifungal activity against Candida albicans MTCC 183 after 72 hrs by serial dilution method. The format is functional. As to conditions: for MIC: Candida albicans, MTCC 183, 72 h.
In data set [11] the test system is Staphylococcus aureus. Description: Antibacterial activity against Staphylococcus aureus MTCC 7443 after 24 hrs by serial dilution method. The format is functional. As to conditions: for MIC: Staphylococcus aureus, MTCC 7443, 24 h.
The test system of data set [12] is Pseudomonas aeruginosa. Description: Antibacterial activity against Pseudomonas aeruginosa MTCC 7952 after 24 hrs by serial dilution method relative to 11,12-Diphenyl-11a,12-dihydro-11H-indeno[2,1-c][1,5]benzothiazepine. The format is functional.
For data set [13], the system named is Bacillus subtilis. Description: microbe, parasite or virus in culture. As to conditions: MTCC 441, 24 h.
The test system of data set [14] is Bacillus subtilis.
For data set [15], the system named is Bacillus subtilis. Description: Antibacterial activity against Bacillus subtilis MTCC 441 after 24 hrs by serial dilution method relative to 11,12-Diphenyl-11a,12-dihydro-11H-indeno[2,1-c][1,5]benzothiazepine. In kind it is functional.

Regarding `Clc1ccc2c(c1)SC(c1ccccc1)C1C(=N2)c2ccccc2C1c1ccccc1` (stereo not given), the logP in data set [1] was 7.48. Moreover, the Activity with Staphylococcus aureus [2] stood at 53.95%; in the data set on Escherichia coli [4], 88.53%; with Candida albicans [8] it was 53.95%; with Aspergillus fumigatus [9], 76.99%; with Pseudomonas aeruginosa [12] it was 7.91%. For the same molecule, the “-logMIC” value was determined as 1.85 with Escherichia coli [3]; 1.55 with Aspergillus fumigatus [6]; 1.24 in the data set with Pseudomonas aeruginosa [7]; 1.55 in the data set on Candida albicans [10]; 1.55 with Staphylococcus aureus [11]. For the same molecule, the MIC came to 14.2 µM (≈ 6.22 µg/mL) in the data set on Escherichia coli [3]; 28.5 µM (≈ 12.5 µg/mL) with Aspergillus fumigatus [6]; 57 µM (≈ 25 µg/mL) with Pseudomonas aeruginosa [7]; 28.5 µM (≈ 12.5 µg/mL) in the data set on Candida albicans [10]; 28.5 µM (≈ 12.5 µg/mL) against Staphylococcus aureus [11]. Besides, the result with Bacillus subtilis [5] was inactive.

As to `COc1ccc2c(c1)SC(c1ccc(Cl)cc1)C1C(=N2)c2ccccc2C1c1ccccc1` (stereo not given), the MIC with Bacillus subtilis [13] turned out to be 26.7 µM (≈ 12.5 µg/mL); in the data set with Escherichia coli [3], 26.7 µM (≈ 12.5 µg/mL); with Aspergillus fumigatus [6] it was 26.7 µM (≈ 12.5 µg/mL); against Pseudomonas aeruginosa [7] it was 6.9 µM (≈ 3.23 µg/mL); against Candida albicans [10], 6.9 µM (≈ 3.23 µg/mL); against Staphylococcus aureus [11] it was 53.4 µM (≈ 25 µg/mL). The “-logMIC” value in the data set with Bacillus subtilis [14] stood at 1.57; in the data set with Escherichia coli [3] it was 1.57; in the data set on Aspergillus fumigatus [6] it was 1.57; with Pseudomonas aeruginosa [7], 2.16; with Candida albicans [10] it was 2.16; with Staphylococcus aureus [11], 1.27. Besides, the logP in data set [1] was found to be 7.23. Besides, the Activity in the data set with Staphylococcus aureus [2] came out at 13.73%; in the data set with Bacillus subtilis [15] it was 56.86%; in the data set on Escherichia coli [4], 78.45%; with Candida albicans [8] it was 88.85%; with Aspergillus fumigatus [9], 78.45%; with Pseudomonas aeruginosa [12] it was 88.85%.

As for `COc1ccc(C2Sc3cc(Cl)ccc3N=C3c4ccccc4C(c4ccccc4)C32)cc1` (stereo not given), the MIC in the data set with Bacillus subtilis [13] amounted to 53.4 µM (≈ 25 µg/mL); against Escherichia coli [3], 26.7 µM (≈ 12.5 µg/mL); in the data set on Aspergillus fumigatus [6], 26.7 µM (≈ 12.5 µg/mL); in the data set with Pseudomonas aeruginosa [7], 6.6 µM (≈ 3.09 µg/mL); in the data set on Candida albicans [10], 13.3 µM (≈ 6.22 µg/mL); in the data set with Staphylococcus aureus [11], 13.3 µM (≈ 6.22 µg/mL). The “-logMIC” value was 1.27 in the data set on Bacillus subtilis [14]; 1.57 with Escherichia coli [3]; 1.57 in the data set with Aspergillus fumigatus [6]; 2.18 in the data set with Pseudomonas aeruginosa [7]; 1.88 with Candida albicans [10]; 1.88 in the data set with Staphylococcus aureus [11]. In data set [1], this molecule yielded a lipophilicity (logP) of 7.23. In addition, the Activity in the data set with Staphylococcus aureus [2] is listed as 78.51%; with Bacillus subtilis [15], 13.73%; in the data set on Escherichia coli [4] it was 78.45%; with Candida albicans [8], 78.51%; with Aspergillus fumigatus [9], 78.45%; in the data set with Pseudomonas aeruginosa [12], 89.33%.

As for `Cc1ccc(C2Sc3cc(C)ccc3N=C3c4ccccc4C(c4ccccc4)C32)cc1` (stereo not given), the MIC with Bacillus subtilis [13] worked out at 28.9 µM (≈ 12.5 µg/mL); against Escherichia coli [3], 57.9 µM (≈ 25 µg/mL); against Aspergillus fumigatus [6], 116 µM (≈ 50 µg/mL); with Pseudomonas aeruginosa [7], 116 µM (≈ 50 µg/mL); with Candida albicans [10], 116 µM (≈ 50 µg/mL); in the data set with Staphylococcus aureus [11], 28.9 µM (≈ 12.5 µg/mL). The “-logMIC” value with Bacillus subtilis [14] came out at 1.54; in the data set on Escherichia coli [3] it was 1.24; with Aspergillus fumigatus [6], 0.94; with Pseudomonas aeruginosa [7], 0.94; with Candida albicans [10], 0.94; in the data set on Staphylococcus aureus [11] it was 1.54. The log partition coefficient (logP) in data set [1] was 7.9. Further, the Activity with Staphylococcus aureus [2] was 53.31%; in the data set on Bacillus subtilis [15] it was 53.31%; in the data set on Escherichia coli [4], 53.26%; in the data set with Candida albicans [8] it was -87.1%; in the data set with Aspergillus fumigatus [9], 6.53%; in the data set on Pseudomonas aeruginosa [12], -87.07%.

Turning to `Cc1ccc(C2Sc3cc(Cl)ccc3N=C3c4ccccc4C(c4ccccc4)C32)cc1` (stereo not given), the MIC against Bacillus subtilis [13] was 27.6 µM (≈ 12.5 µg/mL); in the data set on Escherichia coli [3], 13.8 µM (≈ 6.24 µg/mL); in the data set with Aspergillus fumigatus [6], 27.6 µM (≈ 12.5 µg/mL); with Pseudomonas aeruginosa [7], 27.6 µM (≈ 12.5 µg/mL); in the data set with Candida albicans [10], 27.6 µM (≈ 12.5 µg/mL); against Staphylococcus aureus [11], 6.9 µM (≈ 3.12 µg/mL). Besides, the “-logMIC” value is listed as 1.56 in the data set on Bacillus subtilis [14]; 1.86 in the data set with Escherichia coli [3]; 1.56 in the data set on Aspergillus fumigatus [6]; 1.56 in the data set with Pseudomonas aeruginosa [7]; 1.56 in the data set on Candida albicans [10]; 2.16 with Staphylococcus aureus [11]. In addition, the logP in [1] turned out to be 7.95. In addition, the Activity with Staphylococcus aureus [2] is given as 88.85%; in the data set on Bacillus subtilis [15], 55.41%; in the data set on Escherichia coli [4] it was 88.86%; in the data set with Candida albicans [8], 55.41%; in the data set on Aspergillus fumigatus [9], 77.72%; in the data set with Pseudomonas aeruginosa [12], 55.41%.

`Clc1ccc(C2Sc3cc(Cl)ccc3N=C3c4ccccc4C(c4ccccc4)C32)cc1` (stereo not given) displayed a logP in [1] of 8. The Activity is reported as 14.53% in the data set with Staphylococcus aureus [2]; 89.34% in the data set on Escherichia coli [4]; 78.67% with Candida albicans [8]; 94.67% in the data set on Aspergillus fumigatus [9]; -70.92% in the data set with Pseudomonas aeruginosa [12]. In addition, the “-logMIC” value with Escherichia coli [3] is listed as 1.88; in the data set with Aspergillus fumigatus [6] it was 2.18; in the data set on Pseudomonas aeruginosa [7], 0.98; in the data set on Candida albicans [10], 1.88; with Staphylococcus aureus [11], 1.28. Further, the MIC was determined as 13.2 µM (≈ 6.24 µg/mL) with Escherichia coli [3]; 6.6 µM (≈ 3.12 µg/mL) in the data set on Aspergillus fumigatus [6]; 106 µM (≈ 50 µg/mL) with Pseudomonas aeruginosa [7]; 13.2 µM (≈ 6.24 µg/mL) against Candida albicans [10]; 52.9 µM (≈ 25 µg/mL) in the data set with Staphylococcus aureus [11]. Further, the result with Bacillus subtilis [5] was inactive.
